# Read-outs that look alike come from different tables or passages of the source.
# Test system: RPEMYC^H2B-GFP cells
# Assay: Phenotypic screening assay (mitotic arrest, polyploidy)
# Assay type: cell-based
# Conditions: 1 nM to 30 μM; for IC50: read-out: Proliferative arrest (>50%)
# Summary of the method: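 RPE cells expressing MYC and H2B-EGFP treated with compound at 1 nM–30 μM; mitotic index scored at 24 h and polyploidy (DNA content) at 48 h by automated imaging, with reads at 24, 48 or 72 h. Hits show transient mitotic arrest followed by polyploid accumulation.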
# [1] = read-out: Min. Effective conc. for Polyploidy (≥5%)
Structure (SMILES),minimal effective concentration [1],minimal effective concentration (read-out: Mitotic Arrest (≥5%)),IC50
"CNC(=O)c1ccc2nccc(Oc3cc(OC)cc(-n4cccn4)c3)c2c1 [Compound 57, 4-(3-Methoxy-5-(1H-pyrazol-1-yl)phenoxy)-N-methylquinoline-6-carboxamide]",0.001 to 1 µM,0.001 to 1 µM,1 to 1000 nM
"COc1cc(Oc2ccnc3cc(OC)c(C(N)=O)cc23)cc(O[C@H]2CCOC2)c1 [Compound 80, (S)-7-methoxy-4-(3-methoxy-5-((tetrahydrofuran-3-yl)oxy)phenoxy)quinoline-6-carboxamide]",0.001 to 1 µM,0.001 to 1 µM,
"COc1cc(Oc2ccnc3ccccc23)cc(-n2cnc(C)c2)c1 [Compound 77, 4-(3-Methoxy-5-(4-methyl-1H-imidazol-1-yl)phenoxy)quinoline]",0.001 to 1 µM,0.001 to 1 µM,1 to 1000 nM
"COc1cc(NC(C)=O)cc(Oc2ccnc3ccc(C(=O)N(C)C)cc23)c1 [Compound 58, 4-(3-acetamido-5-methoxyphenoxy)-N, N-dimethylquinoline-6-carboxamide]",1 to 10 µM,1 to 10 µM,1000 to 10000 nM
"COC(=O)c1cc(OC)cc(Oc2ncnc3sccc23)c1 [Compound 41, methyl 3-methoxy-5-(thieno[2,3-d]pyrimidin-4-yloxy)benzoate]",0.001 to 1 µM,0.001 to 1 µM,1 to 1000 nM
"COc1cc(OC)cc(Oc2ncnc3ccn(C)c23)c1 [Compound 54, 4-(3,5-Dimethoxyphenoxy)-5-methyl-5H-pyrrolo[3,2-d] pyrimidine]",10 to 30 µM,1 to 10 µM,10000 to 30000 nM
"COc1cc2nccc(Oc3cc(-n4cccn4)cc(-n4cccn4)c3)c2cc1C(N)=O [Compound 4, 4-(3,5-di(1H-pyrazol-1-yl)phenoxy)-7-methoxyquinoline-6-carboxamide]",0.001 to 1 µM,0.001 to 1 µM,
COc1cc(Oc2ncnc3ccccc23)cc(-n2ccnc2)c1 [Compound 78],1 to 10 µM,1 to 10 µM,1000 to 10000 nM
"COc1cc(Oc2ncnc3ccccc23)cc(-n2cnc(C)c2)c1 [Compound 76, 4-(3-Methoxy-5-(4-methyl-1H-imidazol-1-yl)phenoxy)quinazoline]",1 to 10 µM,1 to 10 µM,1000 to 10000 nM
"COc1cc(Oc2ccnc3ccc(Br)cc23)cc(OC2CCOC2)c1 (stereo not drawn) [Compound 92, 6-bromo-4-(3-methoxy-5-((tetrahydrofuran-3-yl)oxy)phenoxy)quinoline]",0.001 to 1 µM,0.001 to 1 µM,

# Source: patent US20240239806A1, “COMPOUNDS, COMPOSITIONS AND METHODS OF TREATING DISORDERS” (Chengdu Anticancer Bioscience, Ltd., priority 2021, published 2024)
